#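 Results reflect a 48-hour exposure of cells in 96-well plates to compound at five concentrations. GI50 marks 50% less growth.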 Active and inactive are the calls of the source. Cut-off read from the data, not from the text of the source: active = GI50 up to about 1.1 µM and inactive = higher.
# Columns and labels:
# Test in all cases: DTP human tumour cell line panel, 48 h
# [1] = system: 786-0
# [2] = system: A498
# [3] = system: A549
# [4] = system: ACHN
# [5] = system: BT-549
# [6] = system: CAKI-1
# [7] = system: CCRF-CEM
# [8] = system: COLO 205
# [9] = system: DU-145
# [10] = system: EKVX
# [11] = system: HCC 2998
# [12] = system: HCT-116
# [13] = system: HCT-15
# [14] = system: HL-60
# [15] = system: HOP-62
# [16] = system: HOP-92
# [17] = system: HT-29
# [18] = system: Hs-578T
# [19] = system: IGROV-1
# [20] = system: K562
# [21] = system: KM12
# [22] = system: LOX IMVI
# [23] = system: M14
# [24] = system: MCF7
# [25] = system: MDA-MB-231
# [26] = system: MDA-MB-435
# [27] = system: MDA-N
# [28] = system: MOLT-4
# [29] = system: Malme-3M
# [30] = system: NCI-H23
# [31] = system: NCI-H460
# [32] = system: NCI-H522
# [33] = system: NCI/ADR-RES
# [34] = system: OVCAR-3
# [35] = system: OVCAR-4
# [36] = system: OVCAR-5
# [37] = system: OVCAR-8
# [38] = system: PC-3
# [39] = system: RXF 393
# [40] = system: SF-268
# [41] = system: SF-295
# [42] = system: SF-539
# [43] = system: SK-MEL-28
# [44] = system: SK-MEL-2
# [45] = system: SK-MEL-5
# [46] = system: SK-OV-3
# [47] = system: SN12C
# [48] = system: SNB-19
# [49] = system: SNB-75
# [50] = system: SW-620
# [51] = system: T47D
# [52] = system: TK-10
# [53] = system: U-251
# [54] = system: UACC-257
# [55] = system: UACC-62
# [56] = system: UO-31
# [57] = system: NCI-H226
# [58] = system: RPMI-8226
# [59] = system: SR
smiles,measurement,setting,value
CC(=O)OCC1OC(On2ccccc2=S)C(OC(C)=O)C(OC(C)=O)C1OC(C)=O (stereo unspecified),GI50,[1],> 100 µM (inactive)
same,GI50,[2],> 100 µM (inactive)
same,GI50,[3],> 100 µM (inactive)
same,GI50,[4],> 100 µM (inactive)
same,GI50,[5],> 100 µM (inactive)
same,GI50,[6],> 100 µM (inactive)
same,GI50,[7],0.785 µM (active)
same,GI50,[8],81.5 µM (inactive)
same,GI50,[9],> 100 µM (inactive)
same,GI50,[10],> 100 µM (inactive)
same,GI50,[11],> 100 µM (inactive)
same,GI50,[12],> 100 µM (inactive)
same,GI50,[13],> 100 µM
same,GI50,[14],1.55 µM (inactive)
same,GI50,[15],> 100 µM (inactive)
same,GI50,[16],> 100 µM (inactive)
same,GI50,[17],78.9 µM (inactive)
same,GI50,[18],> 100 µM (inactive)
same,GI50,[19],> 100 µM (inactive)
same,GI50,[20],> 100 µM (inactive)
same,GI50,[21],> 100 µM (inactive)
same,GI50,[22],> 100 µM (inactive)
same,GI50,[23],> 100 µM (inactive)
same,GI50,[24],> 100 µM (inactive)
same,GI50,[25],> 100 µM (inactive)
same,GI50,[26],> 100 µM (inactive)
same,GI50,[27],> 100 µM (inactive)
same,GI50,[28],33.9 µM (inactive)
same,GI50,[29],> 100 µM (inactive)
same,GI50,[30],> 100 µM (inactive)
same,GI50,[31],> 100 µM (inactive)
same,GI50,[32],49.7 µM (inactive)
same,GI50,[33],> 100 µM (inactive)
same,GI50,[34],> 100 µM (inactive)
same,GI50,[35],> 100 µM (inactive)
same,GI50,[36],> 100 µM (inactive)
same,GI50,[37],> 100 µM (inactive)
same,GI50,[38],69.2 µM (inactive)
same,GI50,[39],> 100 µM (inactive)
same,GI50,[40],> 100 µM (inactive)
same,GI50,[41],> 100 µM (inactive)
same,GI50,[42],> 100 µM (inactive)
same,GI50,[43],> 100 µM (inactive)
same,GI50,[44],> 100 µM (inactive)
same,GI50,[45],> 100 µM (inactive)
same,GI50,[46],> 100 µM (inactive)
same,GI50,[47],> 100 µM (inactive)
same,GI50,[48],> 100 µM (inactive)
same,GI50,[49],> 100 µM (inactive)
same,GI50,[50],36.6 µM (inactive)
same,GI50,[51],87.1 µM (inactive)
same,GI50,[52],> 100 µM (inactive)
same,GI50,[53],> 100 µM (inactive)
same,GI50,[54],> 100 µM (inactive)
same,GI50,[55],> 100 µM (inactive)
same,GI50,[56],> 100 µM (inactive)
Cc1ccc(NC=O)c(-c2c(N)[nH]c(=S)[nH]c2=O)c1,GI50,[1],> 100 µM (inactive)
same,GI50,[2],> 100 µM (inactive)
same,GI50,[3],> 100 µM (inactive)
same,GI50,[4],60.7 µM (inactive)
same,GI50,[5],> 100 µM (inactive)
same,GI50,[6],> 100 µM (inactive)
same,GI50,[7],> 100 µM (inactive)
same,GI50,[8],> 100 µM (inactive)
same,GI50,[9],> 100 µM (inactive)
same,GI50,[10],> 100 µM (inactive)
same,GI50,[12],> 100 µM (inactive)
same,GI50,[13],> 100 µM
same,GI50,[14],> 100 µM (inactive)
same,GI50,[15],> 100 µM (inactive)
same,GI50,[16],> 100 µM (inactive)
same,GI50,[17],> 100 µM (inactive)
same,GI50,[18],> 100 µM (inactive)
same,GI50,[19],> 100 µM (inactive)
same,GI50,[20],> 100 µM (inactive)
same,GI50,[21],> 100 µM (inactive)
same,GI50,[22],> 100 µM (inactive)
same,GI50,[23],> 100 µM (inactive)
same,GI50,[24],> 100 µM (inactive)
same,GI50,[25],> 100 µM (inactive)
same,GI50,[26],94 µM (inactive)
same,GI50,[27],> 100 µM (inactive)
same,GI50,[28],> 100 µM (inactive)
same,GI50,[29],> 100 µM (inactive)
same,GI50,[57],> 100 µM (inactive)
same,GI50,[30],> 100 µM (inactive)
same,GI50,[32],> 100 µM (inactive)
same,GI50,[33],> 100 µM (inactive)
same,GI50,[34],94.2 µM (inactive)
same,GI50,[36],> 100 µM (inactive)
same,GI50,[37],> 100 µM (inactive)
same,GI50,[58],> 100 µM (inactive)
same,GI50,[39],> 100 µM (inactive)
same,GI50,[40],> 100 µM (inactive)
same,GI50,[41],> 100 µM (inactive)
same,GI50,[42],> 100 µM (inactive)
same,GI50,[44],> 100 µM (inactive)
same,GI50,[45],> 100 µM (inactive)
same,GI50,[46],12.3 µM (inactive)
same,GI50,[47],> 100 µM (inactive)
same,GI50,[48],> 100 µM (inactive)
same,GI50,[49],> 100 µM (inactive)
same,GI50,[59],> 100 µM (inactive)
same,GI50,[50],> 100 µM (inactive)
same,GI50,[51],> 100 µM (inactive)
same,GI50,[52],> 100 µM (inactive)
same,GI50,[54],> 100 µM (inactive)
same,GI50,[55],> 100 µM (inactive)
same,GI50,[56],> 100 µM (inactive)
CCOC(=O)c1c(N)n(-c2ccccc2)c(=S)n(-c2ccccc2)c1=O,GI50,[1],> 100 µM (inactive)
same,GI50,[3],> 100 µM (inactive)
same,GI50,[4],> 100 µM (inactive)
same,GI50,[5],> 100 µM (inactive)
same,GI50,[7],> 100 µM (inactive)
same,GI50,[8],> 100 µM (inactive)
same,GI50,[9],> 100 µM (inactive)
same,GI50,[11],> 100 µM (inactive)
same,GI50,[13],> 100 µM
same,GI50,[14],> 100 µM (inactive)
same,GI50,[16],> 100 µM (inactive)
same,GI50,[17],> 100 µM (inactive)
same,GI50,[18],> 100 µM (inactive)
same,GI50,[19],> 100 µM (inactive)
same,GI50,[20],> 100 µM (inactive)
same,GI50,[21],> 100 µM (inactive)
same,GI50,[22],> 100 µM (inactive)
same,GI50,[23],> 100 µM (inactive)
same,GI50,[24],> 100 µM (inactive)
same,GI50,[25],> 100 µM (inactive)
same,GI50,[26],> 100 µM (inactive)
same,GI50,[27],> 100 µM (inactive)
same,GI50,[28],> 100 µM (inactive)
same,GI50,[29],> 100 µM (inactive)
same,GI50,[57],> 100 µM (inactive)
same,GI50,[30],> 100 µM (inactive)
same,GI50,[31],> 100 µM (inactive)
same,GI50,[32],> 100 µM (inactive)
same,GI50,[34],> 100 µM (inactive)
same,GI50,[35],> 100 µM (inactive)
same,GI50,[36],> 100 µM (inactive)
same,GI50,[37],> 100 µM (inactive)
same,GI50,[58],> 100 µM (inactive)
same,GI50,[39],> 100 µM (inactive)
same,GI50,[40],> 100 µM (inactive)
same,GI50,[41],> 100 µM (inactive)
same,GI50,[43],> 100 µM (inactive)
same,GI50,[44],> 100 µM (inactive)
same,GI50,[45],> 100 µM (inactive)
same,GI50,[47],> 100 µM (inactive)
same,GI50,[48],> 100 µM (inactive)
same,GI50,[49],> 100 µM (inactive)
same,GI50,[59],> 100 µM (inactive)
same,GI50,[50],> 100 µM (inactive)
same,GI50,[51],> 100 µM (inactive)
same,GI50,[52],> 100 µM (inactive)
same,GI50,[53],> 100 µM (inactive)
same,GI50,[54],> 100 µM (inactive)
same,GI50,[55],> 100 µM (inactive)
same,GI50,[56],> 100 µM (inactive)
COc1ccc(C2SCC(=O)N2NC(=O)c2ccc(NC(C)=O)cc2)c(OC)c1 (stereo unspecified),GI50,[1],> 100 µM (inactive)
same,GI50,[2],> 100 µM (inactive)
same,GI50,[3],> 100 µM (inactive)
same,GI50,[4],> 100 µM (inactive)
same,GI50,[5],> 100 µM (inactive)
same,GI50,[8],> 100 µM (inactive)
same,GI50,[9],> 100 µM (inactive)
same,GI50,[10],> 100 µM (inactive)
same,GI50,[11],> 100 µM (inactive)
same,GI50,[12],> 100 µM (inactive)
same,GI50,[13],> 100 µM
same,GI50,[14],> 100 µM (inactive)
same,GI50,[15],> 100 µM (inactive)
same,GI50,[16],> 100 µM (inactive)
same,GI50,[17],> 100 µM (inactive)
same,GI50,[18],> 100 µM (inactive)
same,GI50,[19],> 100 µM (inactive)
same,GI50,[20],> 100 µM (inactive)
same,GI50,[21],> 100 µM (inactive)
same,GI50,[23],69.8 µM (inactive)
same,GI50,[24],> 100 µM (inactive)
same,GI50,[25],> 100 µM (inactive)
same,GI50,[26],> 100 µM (inactive)
same,GI50,[27],> 100 µM (inactive)
same,GI50,[28],> 100 µM (inactive)
same,GI50,[57],> 100 µM (inactive)
same,GI50,[30],> 100 µM (inactive)
same,GI50,[31],> 100 µM (inactive)
same,GI50,[33],> 100 µM (inactive)
same,GI50,[34],> 100 µM (inactive)
same,GI50,[35],> 100 µM (inactive)
same,GI50,[36],> 100 µM (inactive)
same,GI50,[37],> 100 µM (inactive)
same,GI50,[58],> 100 µM (inactive)
same,GI50,[39],> 100 µM (inactive)
same,GI50,[40],> 100 µM (inactive)
same,GI50,[41],> 100 µM (inactive)
same,GI50,[42],> 100 µM (inactive)
same,GI50,[43],> 100 µM (inactive)
same,GI50,[44],> 100 µM (inactive)
same,GI50,[45],> 100 µM (inactive)
same,GI50,[46],> 100 µM (inactive)
same,GI50,[47],> 100 µM (inactive)
same,GI50,[48],> 100 µM (inactive)
same,GI50,[49],> 100 µM (inactive)
same,GI50,[50],> 100 µM (inactive)
same,GI50,[51],93.3 µM (inactive)
same,GI50,[52],> 100 µM (inactive)
same,GI50,[53],33.6 µM (inactive)
same,GI50,[54],> 100 µM (inactive)
same,GI50,[55],> 100 µM (inactive)
same,GI50,[56],> 100 µM (inactive)

# — ChEMBL document CHEMBL1201862, “PubChem BioAssay data set” (2004)
